According to ChEMBL document CHEMBL2074033, “In vivo imaging of hepatobiliary transport function mediated by multidrug resistance associated protein and P-glycoprotein” (Cancer Chemother Pharmacol, 2004):

Target: ATP-dependent translocase ABCB1 (Homo sapiens, UniProt P08183)
Assay: TP_TRANSPORTER: cell accumulation in GLP4/P-gp cells
Assay type: functional, cell-based

Sequence of ATP-dependent translocase ABCB1 (P08183 whole entry): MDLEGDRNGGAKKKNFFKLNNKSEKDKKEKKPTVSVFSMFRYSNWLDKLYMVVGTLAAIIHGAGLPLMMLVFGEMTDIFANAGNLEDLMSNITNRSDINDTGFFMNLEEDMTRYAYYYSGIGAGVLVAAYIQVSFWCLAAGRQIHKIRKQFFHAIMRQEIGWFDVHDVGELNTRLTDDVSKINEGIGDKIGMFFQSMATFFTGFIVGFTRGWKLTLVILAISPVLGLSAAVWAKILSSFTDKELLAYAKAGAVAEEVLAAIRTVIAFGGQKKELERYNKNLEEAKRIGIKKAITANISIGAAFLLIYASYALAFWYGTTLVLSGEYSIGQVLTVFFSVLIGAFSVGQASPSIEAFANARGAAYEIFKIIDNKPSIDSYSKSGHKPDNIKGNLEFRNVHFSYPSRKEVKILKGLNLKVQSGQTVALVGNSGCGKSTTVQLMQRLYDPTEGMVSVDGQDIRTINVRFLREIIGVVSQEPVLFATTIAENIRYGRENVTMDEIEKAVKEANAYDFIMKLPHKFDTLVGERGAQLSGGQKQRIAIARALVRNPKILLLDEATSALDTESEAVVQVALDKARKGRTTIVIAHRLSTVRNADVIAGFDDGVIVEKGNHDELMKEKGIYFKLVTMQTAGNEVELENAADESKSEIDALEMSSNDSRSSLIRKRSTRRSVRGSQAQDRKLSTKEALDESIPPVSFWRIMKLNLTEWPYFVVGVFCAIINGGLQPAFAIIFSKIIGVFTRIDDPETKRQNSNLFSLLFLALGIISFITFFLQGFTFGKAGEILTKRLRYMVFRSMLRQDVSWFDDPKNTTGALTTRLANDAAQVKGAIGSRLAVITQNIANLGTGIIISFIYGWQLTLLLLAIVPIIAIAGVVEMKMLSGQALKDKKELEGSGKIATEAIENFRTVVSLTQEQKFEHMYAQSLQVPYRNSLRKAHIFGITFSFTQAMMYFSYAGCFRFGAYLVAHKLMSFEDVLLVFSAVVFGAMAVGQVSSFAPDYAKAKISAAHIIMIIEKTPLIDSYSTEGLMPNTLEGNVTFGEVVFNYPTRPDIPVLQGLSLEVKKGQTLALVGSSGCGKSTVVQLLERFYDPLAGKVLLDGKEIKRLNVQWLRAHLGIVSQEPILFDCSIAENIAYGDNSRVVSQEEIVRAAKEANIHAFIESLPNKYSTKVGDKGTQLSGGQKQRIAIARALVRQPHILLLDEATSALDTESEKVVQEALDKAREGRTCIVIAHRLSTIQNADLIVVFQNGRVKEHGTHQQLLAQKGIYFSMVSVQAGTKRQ

## TECHNETIUM TC 99M DISOFENIN
  Activity: is not a substrate [-]
